Key:
Assay type in all cases: functional
RPMI-8226 [1] = experiment: Growth inhibition of human RPMI-8226 cells at 10 uM incubated for 48 hrs by sulforhodamine B assay relative to control; conditions: read-out: GI
SR [2] = experiment: Growth inhibition of human SR cells at 10 uM incubated for 48 hrs by sulforhodamine B assay relative to control; conditions: read-out: GI
A549 = experiment: Growth inhibition of human A549/ATCC cells at 10 uM incubated for 48 hrs by sulforhodamine B assay relative to control; conditions: read-out: GI
HOP-62 = experiment: Growth inhibition of human HOP-62 cells at 10 uM incubated for 48 hrs by sulforhodamine B assay relative to control; conditions: read-out: GI
NCI-H322M [3] = experiment: Growth inhibition of human NCI-H322M cells at 10 uM incubated for 48 hrs by sulforhodamine B assay relative to control; conditions: read-out: GI
NCI-H460 = experiment: Growth inhibition of human NCI-H460 cells at 10 uM incubated for 48 hrs by sulforhodamine B assay relative to control; conditions: read-out: GI
SW-620 [4] = experiment: Growth inhibition of human SW-620 cells at 10 uM incubated for 48 hrs by sulforhodamine B assay relative to control; conditions: read-out: GI
U-251 [5] = experiment: Growth inhibition of human U-251 cells at 10 uM incubated for 48 hrs by sulforhodamine B assay relative to control; conditions: read-out: GI
SK-MEL-2 [6] = experiment: Growth inhibition of human SK-MEL-2 cells at 10 uM incubated for 48 hrs by sulforhodamine B assay relative to control; conditions: read-out: GI
SK-OV-3 = experiment: Growth inhibition of human SK-OV-3 cells at 10 uM incubated for 48 hrs by sulforhodamine B assay relative to control; conditions: read-out: GI
786-0 [7] = experiment: Growth inhibition of human 786-0 cells at 10 uM incubated for 48 hrs by sulforhodamine B assay relative to control; conditions: read-out: GI
ACHN = experiment: Growth inhibition of human ACHN cells at 10 uM incubated for 48 hrs by sulforhodamine B assay relative to control; conditions: read-out: GI
CAKI-1 = experiment: Growth inhibition of human CAKI-1 cells at 10 uM incubated for 48 hrs by sulforhodamine B assay relative to control; conditions: read-out: GI
T47D = experiment: Growth inhibition of human T47D cells at 10 uM incubated for 48 hrs by sulforhodamine B assay relative to control; conditions: read-out: GI
RPMI-8226 [8] = experiment: Growth inhibition of human RPMI-8226 cells incubated for 48 hrs by sulforhodamine B assay
SR [9] = experiment: Growth inhibition of human SR cells incubated for 48 hrs by sulforhodamine B assay
NCI-H226 = experiment: Growth inhibition of human NCI-H226 cells incubated for 48 hrs by sulforhodamine B assay
NCI-H322M [10] = experiment: Growth inhibition of human NCI-H322M cells incubated for 48 hrs by sulforhodamine B assay
HCC 2998 = experiment: Growth inhibition of human HCC 2998 cells incubated for 48 hrs by sulforhodamine B assay; conditions: for CC50: read-out: LC50 (the source's name)
KM12 = experiment: Growth inhibition of human KM12 cells incubated for 48 hrs by sulforhodamine B assay
SW-620 [11] = experiment: Growth inhibition of human SW-620 cells incubated for 48 hrs by sulforhodamine B assay
SF-539 = experiment: Growth inhibition of human SF-539 cells incubated for 48 hrs by sulforhodamine B assay
U-251 [12] = experiment: Growth inhibition of human U-251 cells incubated for 48 hrs by sulforhodamine B assay
LOX IMVI = experiment: Growth inhibition of human LOX IMVI cells incubated for 48 hrs by sulforhodamine B assay
M14 = experiment: Growth inhibition of human M14 cells incubated for 48 hrs by sulforhodamine B assay; conditions: for CC50: read-out: LC50 (the source's name)
SK-MEL-2 [13] = experiment: Growth inhibition of human SK-MEL-2 cells incubated for 48 hrs by sulforhodamine B assay
OVCAR-4 = experiment: Growth inhibition of human OVCAR-4 cells incubated for 48 hrs by sulforhodamine B assay
OVCAR-8 = experiment: Growth inhibition of human OVCAR-8 cells incubated for 48 hrs by sulforhodamine B assay
NCI/ADR-RES = experiment: Growth inhibition of human NCI/ADR-RES cells incubated for 48 hrs by sulforhodamine B assay
786-0 [14] = experiment: Growth inhibition of human 786-0 cells incubated for 48 hrs by sulforhodamine B assay
SN12C = experiment: Growth inhibition of human SN12C cells incubated for 48 hrs by sulforhodamine B assay
TK-10 = experiment: Growth inhibition of human TK-10 cells incubated for 48 hrs by sulforhodamine B assay
MDA-MB-231 = experiment: Growth inhibition of human MDA-MB-231 cells incubated for 48 hrs by sulforhodamine B assay

O=C(CNc1c(Cl)cccc1Cl)Nc1ccc(-c2nc3ccccc3s2)cc1
inhibition of growth at 10 µM (RPMI-8226 [1]): 40.2%
inhibition of growth at 10 µM (SR [2]): 89.3%
inhibition of growth at 10 µM (A549): 14.3%
inhibition of growth at 10 µM (HOP-62): -18.3%
inhibition of growth at 10 µM (NCI-H322M [3]): 5.42%
inhibition of growth at 10 µM (NCI-H460): 8.81%
inhibition of growth at 10 µM (SW-620 [4]): 64.7%
inhibition of growth at 10 µM (U-251 [5]): 72.3%
inhibition of growth at 10 µM (SK-MEL-2 [6]): 15.2%
inhibition of growth at 10 µM (SK-OV-3): 2.25%
inhibition of growth at 10 µM (786-0 [7]): 75.9%
inhibition of growth at 10 µM (ACHN): 57.7%
inhibition of growth at 10 µM (CAKI-1): 71.2%
inhibition of growth at 10 µM (T47D): 119%
GI50 (RPMI-8226 [8]): 2.07 µM
LC50 (RPMI-8226 [8]): > 100 µM
TGI (RPMI-8226 [8]): 5.21 µM
GI50 (SR [9]): 1.05 µM
LC50 (SR [9]): > 100 µM
TGI (SR [9]): 5.33 µM
GI50 (NCI-H226): 2.02 µM
LC50 (NCI-H226): > 100 µM
TGI (NCI-H226): 5.32 µM
GI50 (NCI-H322M [10]): 1.8 µM
LC50 (concentration killing 50% of cells) (NCI-H322M [10]): 7.07 µM
TGI (NCI-H322M [10]): 3.57 µM
GI50 (HCC 2998): 1.89 µM
TGI (HCC 2998): 3.56 µM
CC50 (HCC 2998): 6.68 µM
GI50 (KM12): 2.47 µM
LC50 (concentration killing 50% of cells) (KM12): 22.3 µM
TGI (KM12): 6.17 µM
GI50 (SW-620 [11]): 2.01 µM
LC50 (concentration killing 50% of cells) (SW-620 [11]): 9.85 µM
TGI (SW-620 [11]): 4.45 µM
GI50 (SF-539): 1.83 µM
LC50 (SF-539): 6.34 µM
TGI (SF-539): 3.41 µM
GI50 (U-251 [12]): 2.02 µM
LC50 (lethal concentration 50) (U-251 [12]): 9.45 µM
TGI (U-251 [12]): 4.37 µM
GI50 (LOX IMVI): 1.19 µM
LC50 (LOX IMVI): 6.03 µM
TGI (LOX IMVI): 2.68 µM
GI50 (M14): 2.2 µM
TGI (M14): 6.55 µM
CC50 (M14): 60.1 µM
GI50 (SK-MEL-2 [13]): 4.14 µM
LC50 (lethal concentration, 50% cell kill) (SK-MEL-2 [13]): > 100 µM
TGI (SK-MEL-2 [13]): 18.8 µM
GI50 (OVCAR-4): 1.68 µM
LC50 (OVCAR-4): 9.74 µM
TGI (OVCAR-4): 4.05 µM
GI50 (OVCAR-8): 2.64 µM
LC50 (OVCAR-8): > 100 µM
TGI (OVCAR-8): 8.9 µM
GI50 (NCI/ADR-RES): 3.06 µM
LC50 (NCI/ADR-RES): > 100 µM
TGI (NCI/ADR-RES): 8.06 µM
GI50 (786-0 [14]): 1.76 µM
LC50 (50% lethal concentration) (786-0 [14]): 8.34 µM
TGI (786-0 [14]): 3.83 µM
GI50 (SN12C): 2.49 µM
LC50 (SN12C): 86.1 µM
TGI (SN12C): 8.08 µM
GI50 (TK-10): 2.15 µM
LC50 (TK-10): 18.3 µM
TGI (TK-10): 5.41 µM
GI50 (MDA-MB-231): 2.73 µM
LC50 (concentration causing 50% cell kill) (MDA-MB-231): > 100 µM
TGI (MDA-MB-231): 7.35 µM

O=C(CNc1ccc(Cl)cc1)Nc1ccc(-c2nc3ccccc3s2)cc1
inhibition of growth at 10 µM (RPMI-8226 [1]): 54%
inhibition of growth at 10 µM (SR [2]): 88.5%
inhibition of growth at 10 µM (A549): 11%
inhibition of growth at 10 µM (HOP-62): -16.2%
inhibition of growth at 10 µM (NCI-H322M [3]): 19.7%
inhibition of growth at 10 µM (NCI-H460): 12.9%
inhibition of growth at 10 µM (SW-620 [4]): 77.4%
inhibition of growth at 10 µM (U-251 [5]): 73.7%
inhibition of growth at 10 µM (SK-MEL-2 [6]): 21.5%
inhibition of growth at 10 µM (SK-OV-3): 10.2%
inhibition of growth at 10 µM (786-0 [7]): 73%
inhibition of growth at 10 µM (ACHN): 77.2%
inhibition of growth at 10 µM (CAKI-1): 79.8%
inhibition of growth at 10 µM (T47D): 95.4%
GI50 (RPMI-8226 [8]): 2.52 µM
LC50 (RPMI-8226 [8]): > 100 µM
TGI (RPMI-8226 [8]): 6.73 µM
GI50 (SR [9]): 1.62 µM
LC50 (SR [9]): > 100 µM
TGI (SR [9]): 5.76 µM
GI50 (NCI-H226): 2.25 µM
LC50 (NCI-H226): > 100 µM
TGI (NCI-H226): 7.1 µM
GI50 (NCI-H322M [10]): 2 µM
LC50 (concentration killing 50% of cells) (NCI-H322M [10]): 12.3 µM
TGI (NCI-H322M [10]): 4.65 µM
GI50 (HCC 2998): 1.9 µM
TGI (HCC 2998): 3.54 µM
CC50 (HCC 2998): 6.58 µM
GI50 (KM12): 3.24 µM
LC50 (concentration killing 50% of cells) (KM12): 33.5 µM
TGI (KM12): 11.1 µM
GI50 (SW-620 [11]): 1.89 µM
LC50 (concentration killing 50% of cells) (SW-620 [11]): 8.08 µM
TGI (SW-620 [11]): 3.9 µM
GI50 (SF-539): 1.86 µM
LC50 (SF-539): 7.14 µM
TGI (SF-539): 3.65 µM
GI50 (U-251 [12]): 1.94 µM
LC50 (lethal concentration 50) (U-251 [12]): 7.84 µM
TGI (U-251 [12]): 3.9 µM
GI50 (LOX IMVI): 1.29 µM
LC50 (LOX IMVI): 5.74 µM
TGI (LOX IMVI): 2.72 µM
GI50 (M14): 1.78 µM
TGI (M14): 3.84 µM
CC50 (M14): 8.28 µM
GI50 (SK-MEL-2 [13]): 6.19 µM
LC50 (lethal concentration, 50% cell kill) (SK-MEL-2 [13]): > 100 µM
TGI (SK-MEL-2 [13]): 27.9 µM
GI50 (OVCAR-4): 2.24 µM
LC50 (OVCAR-4): 42.3 µM
TGI (OVCAR-4): 8.49 µM
GI50 (OVCAR-8): 2.56 µM
LC50 (OVCAR-8): > 100 µM
TGI (OVCAR-8): 7.06 µM
GI50 (NCI/ADR-RES): 3.03 µM
LC50 (NCI/ADR-RES): > 100 µM
TGI (NCI/ADR-RES): 8.5 µM
GI50 (786-0 [14]): 1.85 µM
LC50 (50% lethal concentration) (786-0 [14]): 9 µM
TGI (786-0 [14]): 4.08 µM
GI50 (SN12C): 2.74 µM
LC50 (SN12C): 73.4 µM
TGI (SN12C): 8.49 µM
GI50 (TK-10): 2.2 µM
LC50 (TK-10): 21.5 µM
TGI (TK-10): 5.84 µM
GI50 (MDA-MB-231): 2.86 µM
LC50 (concentration causing 50% cell kill) (MDA-MB-231): > 100 µM
TGI (MDA-MB-231): 10.3 µM
